Reference: patent US9795139B2, “Molecules having pesticidal utility, and intermediates, compositions, and processes, related thereto” (priority 2015, dated 2017)
Like-named read-outs stand apart in the source and are kept apart here.

Key:
Format in all cases: in vivo
[1] = tested on: Yellow Fever Mosquito (Aedes aegypti, AEDSAE); details: about 1 day-old larvae, 96-well plate from 4000 ppm DMSO master, 3 days at room temperature
Summary of the method: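 Compound stocks at 4000 ppm in DMSO were diluted with 90:10 water/acetone, and 15 μL aliquots were dispensed into six replicate plates. About 1-day-old larvae in liver-powder water were added per well. Plates were covered and held at room temperature for 3 days before each well was scored for mortality.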

[2] = tested on: Beet Armyworm (Spodoptera exigua, LAPHEG); experiment: Bioassay on Beet Armyworm (BAW), 128-well diet tray assay; details: 168 h, read-out: BAW % Control (or Mortality) rating
Summary of the method: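 Second instar larvae were exposed to diet treated at 50 μg/cm^2 for five to seven days at 25° C.; mortality was averaged over eight wells.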

[3] = tested on: Cabbage Looper (Trichoplusia ni, TRIPNI); experiment: Bioassay on Cabbage Looper (CL), 128-well diet tray assay; details: 168 h, read-out: CL % Control (or Mortality) rating
Summary of the method: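 Percent mortality, averaged across eight replicate wells, was scored after five to seven days at 25° C. under a 14:10 light-dark cycle. Each well held one to five second instar larvae on artificial diet treated at 50 μg/cm^2 with compound from 90:10 acetone-water, allowed to dry before infestation.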

[4] = 50 μg/cm^2 on artificial diet, second instar larvae, 25° C., five to seven days, average of eight wells

SMILES	YFM % Control (or Mortality) rating [1]	mortality at 50 µg/cm2 [2, 4] [%]	mortality at 50 µg/cm2 [3, 4] [%]	mortality at 50 µg/cm2 [2] [%]	mortality at 50 µg/cm2 [3] [%]
O=C(NC1CN(C(=O)CC(F)(F)F)C1)c1cc(NC(=O)[C@H]2[C@H](c3cc(Cl)cc(Cl)c3)C2(Cl)Cl)ccc1Cl (relative stereo) [PF12, trans-2-Chloro-5-(2,2-dichloro-3-(3,5-dichlorophenyl)cyclopropane-1-carboxamido)-N-(1-(3,3,3-trifluoropropanoyl)azetidin-3-yl)benzamide]	A (80-100)	50 to 100	50 to 100		
COCC(=O)N1CC(NC(=O)c2cc(NC(=O)[C@H]3[C@H](c4cc(Cl)cc(Cl)c4)C3(Cl)Cl)ccc2Cl)C1 (relative stereo) [PF14, trans-2-Chloro-5-(2,2-dichloro-3-(3,5-dichlorophenyl)cyclopropane-1-carboxamido)-N-(1-(2-methoxyacetyl)azetidin-3-yl)benzamide]	A (80-100)	50 to 100	50 to 100		
O=C(NC1CC[S+]([O-])C1)c1cc(NC(=O)[C@H]2[C@H](c3cc(Cl)c(Cl)c(Cl)c3)C2(Cl)Cl)ccc1Cl (relative stereo) [PF18, trans-2-chloro-5-(2,2-dichloro-3-(3,4,5-trichloro-phenyl)cyclopropane-1-carboxamido)-N-(1-oxidotetrahydrothiophen-3-yl)-benzamide]	A (80-100)	50 to 100	50 to 100		
O=C(NC1CCS(=O)(=O)C1)c1cc(NC(=O)[C@H]2[C@H](c3cc(Cl)c(Cl)c(Cl)c3)C2(Cl)Cl)ccc1Cl (relative stereo) [PF19, trans-2-Chloro-5-(2,2-dichloro-3-(3,4,5-trichlorophenyl)cyclopropane-1-carboxamido)-N-(1,1-dioxidotetrahydrothiophen-3-yl)benzamide]	B (More than 0-Less than 80)	50 to 100	50 to 100		
CN(C(=O)c1cc(NC(=O)[C@H]2[C@H](c3cc(Cl)c(Cl)c(Cl)c3)C2(Cl)Cl)ccc1Cl)C1(C#N)CC1 (relative stereo) [PF21, trans-2-Chloro-N-(1-cyanocyclopropyl)-5-(2,2-dichloro-3-(3,4,5-trichloro-phenyl)cyclopropane-1-carboxamido)-N-methylbenzamide]	B (More than 0-Less than 80)	50 to 100	50 to 100		
CN(C(=O)c1cc(NC(=O)[C@H]2[C@H](c3ccc(Cl)c(Cl)c3)C2(Cl)Cl)ccc1Cl)C1(C#N)CC1 (relative stereo) [PF22, trans-2-Chloro-N-(1-cyanocyclopropyl)-5-(2,2-dichloro-3-(3,4-dichloro-phenyl)cyclopropane-1-carboxamido)-N-methylbenzamide]	B (More than 0-Less than 80)	50 to 100	50 to 100		
O=C(NC1CC1(F)F)c1cc(NC(=O)[C@H]2[C@H](c3cc(Cl)cc(Cl)c3)C2(Cl)Cl)ccc1Cl (relative stereo) [PF23, trans-2-Chloro-5-(2,2-dichloro-3-(3,5-dichlorophenyl)cyclopropane-1-carboxamido)-N-(2,2-difluorocyclopropyl)benzamide]	A (80-100)	50 to 100	50 to 100		
N#CC1(NC(=O)c2cc(NC(=O)[C@H]3[C@H](c4cc(Cl)cc(Cl)c4)C3(Br)Br)ccc2Cl)CC1 (relative stereo) [PF30, trans-2-Chloro-N-(1-cyanocyclopropyl)-5-(2,2-dibromo-3-(3,5-dichlorophenyl)-cyclopropane-1-carboxamido)benzamide]	D (No activity noticed in this bioassay)	50 to 100	50 to 100		
O=C(NC1CC(F)(F)C1)c1cc(NC(=O)[C@H]2[C@H](c3cc(Cl)cc(Cl)c3)C2(Br)Br)ccc1Cl (relative stereo) [PF31, trans-2-Chloro-5-(2,2-dibromo-3-(3,5-dichlorophenyl)cyclopropane-1-carboxamido)-N-(3,3-difluorocyclobutyl)benzamide]	B (More than 0-Less than 80)	50 to 100	50 to 100		
CC1(NC(=O)c2cc(NC(=O)[C@H]3[C@H](c4cc(Cl)cc(Cl)c4)C3(Cl)Cl)ccc2Cl)CC1 (relative stereo) [PF32, trans-2-Chloro-5-(2,2-dichloro-3-(3,5-dichloro-phenyl)cyclopropanecarboxamido)-N-(1-methylcyclopropyl)benzamide]	A (80-100)	50 to 100	50 to 100		
COC(=O)C1(NC(=O)c2cc(NC(=O)[C@H]3[C@H](c4cc(Cl)cc(Cl)c4)C3(Cl)Cl)ccc2Cl)CCCC1 (relative stereo) [PF33, trans-Methyl 1-(2-chloro-5-(2,2-dichloro-3-(3,5-dichlorophenyl)cyclopropane-carboxamido)benzamido)cyclopentanecarboxylate]	D (No activity noticed in this bioassay)	0 to 50	50 to 100		
O=C(N[C@@H]1CON(CC(F)(F)F)C1=O)c1cc(NC(=O)C2C(c3ccc(Cl)c(Cl)c3)C2(Cl)Cl)ccc1Cl (stereo in doubt) [Molecule F79, trans-2-Chloro-5-(2,2-dichloro-3-(3,4-dichlorophenyl)cyclopropane-1-carboxamido)-N—((R)-3-oxo-2-(2,2,2-trifluoroethyl)isoxazolidin-4-yl)benzamide]	A (80-100)	50 to 100	50 to 100		
O=C(N[C@@H]1CON(CC(F)(F)F)C1=O)c1cc(NC(=O)C2C(c3cc(Cl)c(Cl)c(Cl)c3)C2(Cl)Cl)ccc1Cl (stereo in doubt) [Molecule F80, trans-2-Chloro-5-(2,2-dichloro-3-(3,4,5-trichlorophenyl)cyclopropane-1-carboxamido)-N—((R)-3-oxo-2-(2,2,2-trifluoroethyl)isoxazolidin-4-yl)benzamide]	A (80-100)	50 to 100	50 to 100		
O=C(NC1CCC1)c1cc(NC(=O)C2C(c3cc(Cl)c(Cl)c(Cl)c3)C2(Cl)Cl)ccc1Cl (stereo not drawn) [Molecule F42, trans-2-Chloro-N-cyclobutyl-5-(2,2-dichloro-3-(3,4-trichlorophenyl)cyclopropanecarboxamido)benzamide]	D (No activity noticed in this bioassay)	50 to 100	50 to 100		
N#CC1(NC(=O)c2cc(NC(=O)[C@H]3[C@H](c4cc(Cl)c(Cl)c(Cl)c4)C3(Cl)Cl)ccc2Cl)CC1 [Molecule F63, 2-Chloro-N-(1-cyanocyclopropyl)-5-((1R,3R)-2,2-dichloro-3-(3,4,5-trichloro-phenyl)cyclopropane-1-carboxamido)benzamide]	A (80-100)	50 to 100	50 to 100		
N#CC1(NC(=O)c2cc(NC(=O)[C@@H]3[C@@H](c4cc(Cl)c(Cl)c(Cl)c4)C3(Cl)Cl)ccc2Cl)CC1 [Molecule F64, 2-Chloro-N-(1-cyanocyclopropyl)-5-((1S,3S)-2,2-dichloro-3-(3,4,5-trichloro-phenyl)cyclopropane-1-carboxamido)benzamide]	A (80-100)	50 to 100	50 to 100		
N#CC1(NC(=O)c2cc(NC(=O)C3C(c4cc(Cl)cc(Cl)c4)C3(Cl)Br)ccc2Cl)CC1 (stereo not drawn) [Molecule F72]	D (No activity noticed in this bioassay)			50 to 100	50 to 100
O=C(NC1CC(F)(F)C1)c1cc(NC(=O)[C@H]2[C@H](c3cc(Cl)cc(Cl)c3)C2(Cl)Cl)ccc1Cl [Molecule F73, 2-Chloro-5-((1R,3R)-2,2-dichloro-3-(3,5-dichlorophenyl)cyclopropanecarbox-amido)-N-(3,3-difluorocyclobutyl)benzamide]	A (80-100)	50 to 100	50 to 100		
O=C(NC1CC(F)(F)C1)c1cc(NC(=O)[C@@H]2[C@@H](c3cc(Cl)cc(Cl)c3)C2(Cl)Cl)ccc1Cl [Molecule F74, 2-Chloro-5-((1S,3S)-2,2-dichloro-3-(3,5-dichlorophenyl)cyclopropane-1-carboxamido)-N-(3,3-difluorocyclobutyl)benzamide]	A (80-100)	50 to 100	50 to 100		
N#CC1(NC(=O)c2cc(NC(=O)[C@@H]3[C@@H](c4cc(Cl)cc(Cl)c4)C3(Cl)Cl)ccc2Cl)CC1 [Molecule F76, 2-Chloro-N-(1-cyanocyclopropyl)-5-((1S,3S)-2,2-dichloro-3-(3,5-dichloro-phenyl)cyclopropanecarboxamido)benzamide]	A (80-100)	50 to 100	50 to 100		
N#Cc1cc(Cl)cc(C2C(C(=O)Nc3ccc(Cl)c(C(=O)NC4CC(F)(F)C4)c3)C2(Cl)Cl)c1 (stereo not drawn) [Molecule F77, trans-2-Chloro-5-(2,2-dichloro-3-(3-chloro-5-cyanophenyl)cyclopropane-1-carboxamidocarboxamido)-N-(3,3-difluorocyclobutyl)benzamide]	A (80-100)	50 to 100	50 to 100		
